Values after ≈ are worked out from the molar mass of the structure shown. Read-outs that look alike come from different tables or passages of the source.

In one assay the target is B.subtilis pol IIIC (Bacillus subtilis, UniProt P13267). The experiment in a line: biochemical. As for the experimental part:
DNA pol activity was assayed as described in Barnes et al., Nuc. Acids Res., 6:1203-19 (1979), using activated “nicked” calf-thymus DNA as template primer, 10 pM [^3H-methyl]-dTTP as the labelled dNTP substrate, and dATP, dCTP, and dGTP at 25 μM each.
Inhibitory activity of the compounds is determined by measuring the ability of the agent to inhibit enzyme-catalyzed incorporation of [^3H]-dTMP into nicked calf thymus DNA in the absence of the competitor dGTP or dATP (“truncated assay”) (see G. E. Wright and N. C. Brown, Inhibition of Bacillus subtilis DNA Polymerase III by Arylhydrazinopyrimidines: Novel Properties of 2-Thiouracil Derivatives, Biochim. Biophys. Acta 432:37-48 (1976)). Purified pol IIIC is added to a buffered solution containing Mg^2+, DTT, glycerol, nicked calf thymus DNA, saturating concentrations of dATP, dCTP, dTTP and [^3H]-dTTP. Reaction mixtures are incubated at 30° C. for 10 minutes, quenched and filtered, and radioactivity in the acid-insoluble material measured by scintillation counting. Experiments are done in triplicate. Inhibitors are assayed by addition of several dilutions of a stock solution of inhibitor (DMSO or water, depending on solubility) before enzyme addition. […] The truncated assay, i.e. exclusion of the competitive substrate dGTP or dATP, depending upon whether the compound is a uracil derivative or an isocytosine derivative, respectively, allows for the direct determination of apparent inhibitor constants (K,) in this assay system.

A further assay deals with B. subtilis. The experiment in a line: Inhibition of bacterial growth on agar plates (MIC). The format is cell-based. The conditions noted are these: Bacillus subtilis, 37° C., 24 hours. As for the experimental part:
(§1) Each compound is assayed against a panel of Bacillus, Enterococcus and Staphylococcus, and a Gram-negative bacterium Escherichia coli as negative control, grown in appropriate plate media solidified with 1.3% agar-agar. Stock solutions of the compounds in dimethylsulfoxide or water, depending on solubility, are added to sterile medium at a temperature of 60° C. […] One tenth mL of diluted bacteria containing 500-1000 colony-forming units (CFU) are plated and spread, and the plates incubated at 37° C. for 24 hours. MIC (minimum inhibitory concentration) is equivalent to the lowest concentration at which growth, i.e. colony formation, is not observed.

The subject of the next assay is E. fecalis. The description is as above. The note with it: 37° C., 24 hours. The format is cell-based. As for the experimental part: as §1
The next assay relates to E. fecium. Described as above. The note with it: 37° C., 24 hours. The format is cell-based. As for the experimental part:
as §1

A further assay has as its system S.aureus (Smith). Described as above. The format is cell-based. The note with it: Staphylococcus aureus, 37° C., 24 hours. As for the experimental part:
as §1

Setting [1] is: truncated assay, apparent inhibitor constant, read-out: K1 B.subtilis pol IIIC.

Sequence of B.subtilis pol IIIC (P13267 whole entry): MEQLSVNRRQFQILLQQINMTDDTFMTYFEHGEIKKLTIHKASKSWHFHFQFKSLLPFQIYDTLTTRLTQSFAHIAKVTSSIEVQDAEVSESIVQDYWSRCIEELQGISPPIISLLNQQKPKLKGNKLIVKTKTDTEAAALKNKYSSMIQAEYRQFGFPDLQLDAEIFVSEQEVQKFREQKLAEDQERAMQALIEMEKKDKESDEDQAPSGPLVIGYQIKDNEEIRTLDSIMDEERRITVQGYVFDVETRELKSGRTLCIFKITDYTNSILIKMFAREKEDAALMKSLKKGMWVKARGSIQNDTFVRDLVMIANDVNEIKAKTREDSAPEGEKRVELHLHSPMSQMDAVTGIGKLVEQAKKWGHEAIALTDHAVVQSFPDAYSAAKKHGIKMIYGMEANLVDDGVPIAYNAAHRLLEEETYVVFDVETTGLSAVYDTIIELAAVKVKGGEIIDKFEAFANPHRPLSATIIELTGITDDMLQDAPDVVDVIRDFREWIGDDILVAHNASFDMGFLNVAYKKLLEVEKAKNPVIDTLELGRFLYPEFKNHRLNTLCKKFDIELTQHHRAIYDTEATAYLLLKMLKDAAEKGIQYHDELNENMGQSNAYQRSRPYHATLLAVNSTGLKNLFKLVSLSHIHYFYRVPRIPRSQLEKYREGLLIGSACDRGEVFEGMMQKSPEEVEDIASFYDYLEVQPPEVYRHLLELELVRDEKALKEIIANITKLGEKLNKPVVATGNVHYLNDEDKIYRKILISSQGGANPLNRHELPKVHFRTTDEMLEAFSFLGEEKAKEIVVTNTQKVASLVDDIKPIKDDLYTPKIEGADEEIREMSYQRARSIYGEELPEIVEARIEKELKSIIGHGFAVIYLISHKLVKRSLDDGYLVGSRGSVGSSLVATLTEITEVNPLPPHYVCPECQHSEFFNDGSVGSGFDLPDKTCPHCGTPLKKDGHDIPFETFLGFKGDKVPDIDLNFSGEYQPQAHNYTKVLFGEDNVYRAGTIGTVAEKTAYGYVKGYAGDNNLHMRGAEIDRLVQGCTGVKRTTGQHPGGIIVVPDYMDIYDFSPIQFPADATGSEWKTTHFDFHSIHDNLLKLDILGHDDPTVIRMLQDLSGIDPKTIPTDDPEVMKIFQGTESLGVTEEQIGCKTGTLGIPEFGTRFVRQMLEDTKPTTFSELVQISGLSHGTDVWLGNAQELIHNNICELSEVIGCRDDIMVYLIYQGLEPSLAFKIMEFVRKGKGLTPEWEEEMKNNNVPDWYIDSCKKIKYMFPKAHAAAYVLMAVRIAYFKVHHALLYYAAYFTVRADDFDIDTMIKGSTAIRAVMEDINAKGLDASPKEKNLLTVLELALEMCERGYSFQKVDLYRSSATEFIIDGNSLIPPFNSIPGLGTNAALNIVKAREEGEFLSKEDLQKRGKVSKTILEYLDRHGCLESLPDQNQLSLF

A word on the MIC: it is the lowest concentration found to suppress growth. `CCc1cc(Nc2cc(=O)n(CCN3CCOCC3)c(=O)[nH]2)ccc1C` [Compound 17, 3-[2-(N-morpholino)ethyl]-6-(3-ethyl-4-methylanilino)uracil]: the Ki on B.subtilis pol IIIC stood at 90 nM. Moreover, the minimal inhibitory concentration (MIC) was under 1.25 µg/mL against B. subtilis, 5 µg/mL (≈ 13.9 µM) in the assay on E. fecalis, 2.5 µg/mL (≈ 6.97 µM) against E. fecium and 5 µg/mL (≈ 13.9 µM) in the assay on S.aureus (Smith).
The compound `CCc1cc(Nc2cc(=O)n(CCCCCCCCO)c(=O)[nH]2)ccc1C` [Compound 18, 3-(8-Hydroxyoctyl)-6-(3-ethyl-4-methylanilino)uracil] registered a Ki at B.subtilis pol IIIC of 26 nM. The minimal inhibitory concentration (MIC) against B. subtilis came out at 1.25 µg/mL (≈ 3.35 µM); against E. fecalis it was 2.5 µg/mL (≈ 6.69 µM); with E. fecium, 2.5 µg/mL (≈ 6.69 µM); in the assay on S.aureus (Smith), 2.5 µg/mL (≈ 6.69 µM).
With `CCc1cc(Nc2cc(=O)n(CCCC#N)c(=O)[nH]2)ccc1C` [Compound 19, 3-(3-Cyanopropyl)-6-(3-ethyl-4-methylanilino)uracil], the Ki on B.subtilis pol IIIC amounted to 140 nM. In addition, the MIC with B. subtilis worked out at 2.5 µg/mL (≈ 8 µM); against E. fecalis, 5 µg/mL (≈ 16 µM); in the assay with E. fecium, 5 µg/mL (≈ 16 µM); with S.aureus (Smith), 2.5 µg/mL (≈ 8 µM).
For `CCc1cc(Nc2cc(=O)n(CCCCC#N)c(=O)[nH]2)ccc1C` [Compound 20, 3-(4-Cyanobutyl)-6-(3-ethyl-4-methylanilino)uracil], the Ki on B.subtilis pol IIIC worked out at 94 nM. Besides, the MIC came to 2.5 µg/mL (≈ 7.66 µM) in the assay on B. subtilis, 2.5 µg/mL (≈ 7.66 µM) in the assay with E. fecalis, 5 µg/mL (≈ 15.3 µM) against E. fecium and 2.5 µg/mL (≈ 7.66 µM) in the assay on S.aureus (Smith).
Regarding `CCc1cc(Nc2cc(=O)n(CCOCCOCCO)c(=O)[nH]2)ccc1C` [Compound 21, 3-{2-[2-Hydroxyethoxy-(2-ethoxy)]ethyl}-6-(3-ethyl-4-methylanilino)uracil], on B.subtilis pol IIIC, the Ki is 87 nM. In addition, the minimal inhibitory concentration (MIC) came out at 2.5 µg/mL (≈ 6.62 µM) in the assay on B. subtilis, 10 µg/mL (≈ 26.5 µM) against E. fecalis, 10 µg/mL (≈ 26.5 µM) in the assay on E. fecium and 10 µg/mL (≈ 26.5 µM) in the assay with S.aureus (Smith).
`CCc1cc(Nc2cc(=O)n(CCCCOC(C)=O)c(=O)[nH]2)ccc1C` [Compound 22, 3-(4-Acetoxybutyl)-6-(3-ethyl-4-methylanilino)uracil] gave a Ki at B.subtilis pol IIIC of 58 nM. The minimal inhibitory concentration (MIC) was determined as 1.25 µg/mL (≈ 3.48 µM) in the assay on B. subtilis, 5 µg/mL (≈ 13.9 µM) in the assay on E. fecalis, 5 µg/mL (≈ 13.9 µM) against E. fecium and 2.5 µg/mL (≈ 6.96 µM) in the assay with S.aureus (Smith).
Turning to `CCc1cc(Nc2cc(=O)n(CCCC(O)CO)c(=O)[nH]2)ccc1C` (centres unmarked) [Compound 23, 3-(4,5-Dihydroxypentyl)-6-(3-ethyl-4-methylanilino)uracil], on B.subtilis pol IIIC, the Ki was 96 nM. Besides, the MIC in the assay with B. subtilis came to 10 µg/mL (≈ 28.8 µM); in the assay on E. fecalis it was 20 µg/mL (≈ 57.6 µM); with E. fecium it was 20 µg/mL (≈ 57.6 µM); in the assay with S.aureus (Smith), 20 µg/mL (≈ 57.6 µM).
On B.subtilis pol IIIC, `CCc1cc(Nc2cc(=O)n(CCCN3CCOCC3)c(=O)[nH]2)ccc1C` [Compound 24, 3-[3-(N-Morpholino)propyl]-6-(3-ethyl-4-methylanilino)uracil] gave a Ki of 110 nM. In addition, the minimal inhibitory concentration (MIC) in the assay with B. subtilis came out at 2.5 µg/mL (≈ 6.71 µM); against E. fecalis it was 10 µg/mL (≈ 26.8 µM); in the assay on E. fecium, 5 µg/mL (≈ 13.4 µM); against S.aureus (Smith), 10 µg/mL (≈ 26.8 µM).
`CCc1cc(Nc2cc(=O)n(CC(C)CO)c(=O)[nH]2)ccc1C` (centres unmarked) [Compound 25, 3-(3-Hydroxy-2-methylpropyl)-6-(3-ethyl-4-methylanilino)uracil] returned a Ki at B.subtilis pol IIIC of 110 nM. Further, the MIC in the assay with B. subtilis was under 1.25 µg/mL; in the assay with E. fecalis, 5 µg/mL (≈ 15.8 µM); in the assay with E. fecium, 2.5 µg/mL (≈ 7.88 µM); against S.aureus (Smith), 5 µg/mL (≈ 15.8 µM).
Turning to `CCc1cc(Nc2cc(=O)n(CCCCCCO)c(=O)[nH]2)ccc1C` [Compound 27, 3-(6-Hydroxyhexyl)-6-(3-ethyl-4-methylanilino)uracil], at B.subtilis pol IIIC, the Ki came to 49 nM. The MIC was under 1.25 µg/mL with B. subtilis, 2.5 µg/mL (≈ 7.24 µM) against E. fecalis, 5 µg/mL (≈ 14.5 µM) in the assay with E. fecium and 2.5 µg/mL (≈ 7.24 µM) in the assay on S.aureus (Smith).
`CCc1cc(Nc2cc(=O)n(CCCC(=O)O)c(=O)[nH]2)ccc1C` [Compound 31, 3-(3-Carboxypropyl)-6-(3-ethyl-4-methylanilino)uracil]: the Ki at B.subtilis pol IIIC came out at 57 nM. In addition, the minimal inhibitory concentration (MIC) in the assay with B. subtilis is over 20 µg/mL; in the assay with E. fecalis, over 20 µg/mL; with E. fecium it was 20 µg/mL (≈ 60.4 µM); with S.aureus (Smith), 10 µg/mL (≈ 30.2 µM).
As for `CCc1cc(Nc2cc(=O)n(C/C=C/CO)c(=O)[nH]2)ccc1C` [Compound 32, 3-(4-Hydroxy-2-butenyl)-6-(3-ethyl-4-methylanilino)uracil], at B.subtilis pol IIIC, the Ki was 51 nM. The MIC against B. subtilis is 1.25 µg/mL (≈ 3.96 µM); against E. fecalis, 5 µg/mL (≈ 15.9 µM); against E. fecium, 2.5 µg/mL (≈ 7.93 µM); against S.aureus (Smith) it was 5 µg/mL (≈ 15.9 µM).
With `CCc1cc(Nc2cc(=O)n(CCCCN3CCSCC3)c(=O)[nH]2)ccc1C` [Compound 36, 3-[(N-Thiomorpholino)butyl]-6-(3-ethyl-4-methylanilino)uracil], the Ki on B.subtilis pol IIIC (setting [1]) was 68 nM. The minimal inhibitory concentration (MIC) with B. subtilis turned out to be 5 µg/mL (≈ 12.4 µM); against E. fecalis it was 5 µg/mL (≈ 12.4 µM); against E. fecium, 5 µg/mL (≈ 12.4 µM); against S.aureus (Smith), 10 µg/mL (≈ 24.8 µM).
As for `CCc1cc(Nc2cc(=O)n(CCCCN3CCC(O)(c4ccc(Cl)c(C(F)(F)F)c4)CC3)c(=O)[nH]2)ccc1C` [Compound 37, 3{[4-(3-Trifluoromethylphenyl-4-chloro-)-4-hydroxypiperidino]butyl}-6-(3-ethyl-4-methylanilino)uracil], the Ki at B.subtilis pol IIIC (setting [1]) came out at 32 nM. The MIC came to 1.25 µg/mL (≈ 2.16 µM) against B. subtilis, 2.5 µg/mL (≈ 4.32 µM) with E. fecalis, 2.5 µg/mL (≈ 4.32 µM) with E. fecium and 2.5 µg/mL (≈ 4.32 µM) in the assay on S.aureus (Smith).
As for `CCc1cc(Nc2cc(=O)n(CCCCN3CCC(O)(c4ccc(Cl)cc4)CC3)c(=O)[nH]2)ccc1C` [Compound 38, 3{[4-(4-Chlorophenyl)-4-hydroxypiperidino]butyl}-6-(3-ethyl-4-methylanilino)uracil], at B.subtilis pol IIIC (setting [1]), the Ki is 25 nM. Moreover, the MIC against B. subtilis, against E. fecalis, against E. fecium and against S.aureus (Smith) was 5 µg/mL (≈ 9.78 µM) in each case.
Regarding `CCc1cc(Nc2cc(=O)n(CCN3CCN(C(=O)c4ccccc4)CC3)c(=O)[nH]2)ccc1C` [Compound 39, 3-[2-(4-Benzoylpiperazino)ethyl]-6-(3-ethyl-4-methylanilino)uracil], on B.subtilis pol IIIC, the Ki was 77 nM. Also, the minimal inhibitory concentration (MIC) came out at 2.5 µg/mL (≈ 5.42 µM) against B. subtilis, 10 µg/mL (≈ 21.7 µM) against E. fecalis, 5 µg/mL (≈ 10.8 µM) against E. fecium and 10 µg/mL (≈ 21.7 µM) in the assay with S.aureus (Smith).
Turning to `CCc1cc(Nc2cc(=O)n(CCCCN3CCN(C(=O)c4ccco4)CC3)c(=O)[nH]2)ccc1C` [Compound 40, 3-{4-[4-(2-Furoyl)piperazino]butyl}-6-(3-ethyl-4-methylanilino)uracil], the Ki at B.subtilis pol IIIC (setting [1]) was determined as 43 nM. For the same compound, the MIC in the assay with B. subtilis turned out to be 5 µg/mL (≈ 10.4 µM); in the assay on E. fecalis, 5 µg/mL (≈ 10.4 µM); in the assay on E. fecium, 10 µg/mL (≈ 20.9 µM); in the assay on S.aureus (Smith), 5 µg/mL (≈ 10.4 µM).
As to `CCc1cc(Nc2cc(=O)n(CCCCN3CCN(Cc4ccccc4)CC3)c(=O)[nH]2)ccc1C` [Compound 41, 3-[4-(4-Benzylpiperazino)butyl]-6-(3-ethyl-4-methylanilino)uracil], the Ki at B.subtilis pol IIIC is 34 nM. Besides, the minimal inhibitory concentration (MIC) against B. subtilis was 5 µg/mL (≈ 10.5 µM); against E. fecalis, 10 µg/mL (≈ 21 µM); in the assay with E. fecium, 5 µg/mL (≈ 10.5 µM); against S.aureus (Smith) it was over 20 µg/mL.
`CCc1cc(Nc2cc(=O)n(CCCCN3CCN(c4ncccn4)CC3)c(=O)[nH]2)ccc1C` [Compound 45, 3-{4-[4-(2-pyrimidinyl)piperazinyl]butyl}-6-(3-ethyl-4-methyylanilino)uracil]: the Ki on B.subtilis pol IIIC (setting [1]) is 43 nM. Also, the MIC stood at 2.5 µg/mL (≈ 5.39 µM) against B. subtilis, 5 µg/mL (≈ 10.8 µM) against E. fecalis, 5 µg/mL (≈ 10.8 µM) in the assay on E. fecium and 10 µg/mL (≈ 21.6 µM) in the assay on S.aureus (Smith).

Values taken from patent US20030114445A1, “N3-substituted 6-anilinopyrimidines and methods to treat-Gram-positive bacterial and mycoplasmal infections” (priority 2001, published 2003).
